Laboratory results from patent publication EP0578644B1, “ANTIBIOTIC A 40926 ESTER DERIVATIVES” (GRUPPO LEPETIT S.p.A., priority 1991, dated 1992).

Key:
[1] = test system: Streptococcus pyogenes C203; test: mouse septicemia (in vivo test); conditions: CD-1 mice infected intraperitoneally; antibiotics administered subcutaneously immediately after infection; calculated on the 7th day from surviving animals (Spearman and Kaerber)
Description: In these in vivo tests control and treatment groups contained five CD-1 mice (Charles River) weighting 18-22 g. They were infected intraperitoneally with 0.5 ml of bacterial suspension prepared by diluting an overnight culture of Streptococcus pyogenes C203 with sterile peptonized saline. Inocula were adjusted so that untreated animals died of septicemia within 48 hours. Antibiotics were administered subcutaneously immediately after infection. On the 7th day, the ED50 in mg/kg was calculated by the method of Spearman and Kaerber (D.J. Finney, "Statistical Methods in Biological Assay", Griffin, page 524, 1952) from the percentages of surviving animals at each dose. The results of the in vivo testing of representative compounds of the invention are summmarized in Table II below: Table II

[2] = test system: coagulase-negative staphylococci; test: in vitro antibacterial activity (MIC, microbroth dilution); assay type: cell-based; conditions: compared with the parent compounds (X vs I and VIII vs VII)

Compound | ED50 [1] [mg/kg] | in vitro activity against coagulase-negative staphylococci [2]
Demannosyl A 40926 complex 6^B-(2-bromoethyl) ester [compound VIII] | 0.31 | better in vitro activity
O^42-demannosyl A 40926 6^B-methyl ester [compound X] | 0.31 | better in vitro activity
antibiotic A 40926 complex 6^B-monomethyl ester [compound I] | 0.18 | –
antibiotic A 40926 complex 6^B-(2-hydroxyethyl) ester [compound V] | 0.18 | –
CN[C@H]1C(=O)N[C@@H]2Cc3ccc(cc3)Oc3cc4cc(c3O)Oc3ccc(cc3Cl)[C@@H](O)[C@@H]3NC(=O)[C@H](NC(=O)[C@@H]4NC(=O)[C@@H](NC2=O)c2cc(cc(O)c2Cl)Oc2cc1ccc2O)c1ccc(O)c(c1)-c1c(O)cc(O)cc1[C@@H](C(=O)O)NC3=O [A 40926 aglycone, reference compound] | 6.2 | –
antibiotic A 40926 complex 6^B-monoethyl ester [compound II] | 0.23 | –
